Reference: ChEMBL document CHEMBL3879881, “Substituted pyrazolyl compounds for the treatment of inflammation” (2005)

Target: T1, Inhibitor of nuclear factor kappa-B kinase subunit beta (Homo sapiens, UniProt O14920)
T1 sequence (O14920 whole entry): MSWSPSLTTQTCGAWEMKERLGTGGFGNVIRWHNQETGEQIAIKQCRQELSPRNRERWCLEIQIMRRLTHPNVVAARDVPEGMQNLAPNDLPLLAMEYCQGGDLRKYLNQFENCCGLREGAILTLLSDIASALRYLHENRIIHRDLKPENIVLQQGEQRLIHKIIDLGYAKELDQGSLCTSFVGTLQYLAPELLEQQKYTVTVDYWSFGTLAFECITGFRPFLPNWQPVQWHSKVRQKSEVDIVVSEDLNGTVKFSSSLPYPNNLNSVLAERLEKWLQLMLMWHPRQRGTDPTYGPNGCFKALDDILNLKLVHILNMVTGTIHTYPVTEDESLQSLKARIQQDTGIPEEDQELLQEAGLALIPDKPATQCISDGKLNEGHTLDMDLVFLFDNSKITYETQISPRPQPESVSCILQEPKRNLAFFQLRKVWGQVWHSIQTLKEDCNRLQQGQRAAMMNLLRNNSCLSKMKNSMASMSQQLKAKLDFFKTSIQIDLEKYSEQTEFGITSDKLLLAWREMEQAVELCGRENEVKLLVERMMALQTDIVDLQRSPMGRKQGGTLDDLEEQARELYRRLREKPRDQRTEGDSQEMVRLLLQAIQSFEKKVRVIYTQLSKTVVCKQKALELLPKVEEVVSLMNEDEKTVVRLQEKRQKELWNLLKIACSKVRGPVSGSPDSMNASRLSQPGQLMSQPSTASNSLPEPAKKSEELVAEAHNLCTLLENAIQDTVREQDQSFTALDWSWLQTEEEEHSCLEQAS
Experiment: Inhibition of human recombinant C-terminal FLAG-epitope-tagged IKK2 expressed in baculovirus using biotinylated IkappaBalpha peptide as substrate assessed as decrease in [gamma-33P]-ATP incorporation in substrate after 30 mins by scintillation counting method

Structure (SMILES) | IC50 [µM]
NC(=O)c1nn(-c2ccc(S(=O)(=O)C(F)(F)F)cc2)c2c1CCc1ccc(N)cc1-2 | 1 to 10
NC(=O)c1nn(-c2ccc(-c3cccc(C(=O)O)c3)cc2)c2c1CCc1ccc(NC(=O)c3ccccc3Cl)cc1-2 | 1 to 10
NC(=O)c1nn(-c2cc(F)cc(F)c2)c2c1CCc1ccc(NC(=O)c3cccc(Cl)c3Cl)cc1-2 | 1 to 10
NC(=O)c1nn(-c2ccc(O)cc2)c2c1CCc1ccc(NC(=O)c3cc4c(cc3Cl)OCO4)cc1-2 | ≤ 1
CN(C)CCC(=O)Nc1ccc(-n2nc(C(N)=O)c3c2-c2cc(NC(=O)c4ccccc4Cl)ccc2CC3)cc1 | 1 to 10
CC(C)(C)C(=O)ONCCCCC(=O)Nc1ccc(-n2nc(C(N)=O)c3c2-c2cc(NC(=O)c4ccccc4Cl)ccc2CC3)cc1 | 1 to 10
NC(=O)c1nn(-c2ccc(OCC(O)CO)cc2)c2c1CCc1ccc(NC(=O)c3cccnc3Cl)cc1-2 (stereo not drawn) | ≤ 1
CC(=O)Oc1cccc(C(=O)Nc2ccc3c(c2)-c2c(c(C(N)=O)nn2-c2cccc(F)c2)CC3)c1C | 1 to 10
NC(=O)c1nn(-c2ccc(/C=C3\CCOC3=O)cc2)c2c1CCc1ccc(NC(=O)c3ccccc3Cl)cc1-2 | 1 to 10
NC(=O)c1nn(-c2cccc(F)c2)c2c1CCc1ccc(NC(=O)c3cccc(Cl)c3F)cc1-2 | 1 to 10
CN(C)CCOc1ccc(-n2nc(C(N)=O)c3c2-c2cc(NC(=O)c4ccccc4Cl)ccc2CC3)cc1 | 1 to 10
NC(=O)c1nn(-c2cccc([N+](=O)[O-])c2)c2c1CCc1ccc(NC(=O)c3ccccc3Cl)cc1-2 | 1 to 10
NC(=O)c1nn(-c2ccc(C(F)(F)F)cc2)c2c1CCc1ccc(NC(=O)c3ccccc3Cl)cc1-2 | 1 to 10
CN(C)C(=O)/C=C/c1ccc(-n2nc(C(N)=O)c3c2-c2cc(NC(=O)c4cccnc4Cl)ccc2CC3)cc1 | 1 to 10
CS(=O)(=O)Nc1ccc2c(c1)-c1c(c(C(N)=O)nn1-c1ccccc1)CC2 | 1 to 10
CNC(=O)/C=C/c1ccc(-n2nc(C(N)=O)c3c2-c2cc(N)ccc2CC3)cc1 | 1 to 10
NC(=O)c1nn(-c2cccc(F)c2)c2c1CCc1ccc(NC(=O)c3cccc(Cl)c3Cl)cc1-2 | 1 to 10
NC(=O)c1nn(-c2ccc(C(=O)O)cc2)c2c1CCc1ccc(NC(=O)c3ccccc3Cl)cc1-2 | 1 to 10
CN(C)C(=O)/C=C/c1ccc(-n2nc(C(N)=O)c3c2-c2cc(NS(C)(=O)=O)ccc2CC3)cc1 | 1 to 10
NC(=O)c1nn(-c2cc(F)c(N)cc2F)c2c1CCc1ccc(NC(=O)c3ccncc3Cl)cc1-2 | ≤ 1
NC(=O)c1nn(-c2cccc(Cl)c2)c2c1CCc1ccc(NC(=O)c3ccccc3Cl)cc1-2 | ≤ 1
NC(=O)c1nn(-c2ccc(NC(=O)c3ccccc3)cc2)c2c1CCc1ccc(NC(=O)c3ccccc3Cl)cc1-2 | 1 to 10
NC(=O)c1nn(-c2ccc(-c3cccnc3)cc2)c2c1CCc1ccc(NC(=O)c3ccccc3Cl)cc1-2 | 1 to 10
NC(=O)c1nn(-c2ccc(-c3cccc(CO)c3)cc2)c2c1CCc1ccc(NC(=O)c3ccccc3Cl)cc1-2 | 1 to 10
CC1(C)OCC(COc2ccc(-n3nc(C(N)=O)c4c3-c3cc(NC(=O)c5ccc(S(C)(=O)=O)cc5Cl)ccc3CC4)cc2)O1 (stereo not drawn) | 1 to 10

Structure (SMILES) | IC50 [µM]
CS(=O)(=O)Nc1ccc2c(c1)-c1c(c(C(N)=O)nn1-c1cccc(O)c1)CC2 | 1 to 10
NC(=O)/C=C/c1ccc(-n2nc(C(N)=O)c3c2-c2cc(NC(=O)c4cccnc4Cl)ccc2CC3)cc1 | ≤ 1
Cc1ccccc1C(=O)Nc1ccc2c(c1)-c1c(c(C(N)=O)nn1-c1ccc(Br)cc1)CC2 | ≤ 1
CC(=O)/C=C/c1ccc(-n2nc(C(N)=O)c3c2-c2cc(NC(=O)c4ccccc4Cl)ccc2CC3)cc1 | ≤ 1
CS(=O)(=O)c1ccc(C(=O)Nc2ccc3c(c2)-c2c(c(C(N)=O)nn2-c2ccc(OCC(O)CO)cc2)CC3)c(Cl)c1 (stereo not drawn) | ≤ 1
C[S+]([O-])c1ccc(Cl)c(C(=O)Nc2ccc3c(c2)-c2c(c(C(N)=O)nn2-c2ccc(O)cc2)CC3)c1 (stereo not drawn) | ≤ 1
CC1(C)OCC(COc2ccc(-n3nc(C(N)=O)c4c3-c3cc(NC(=O)c5ccccc5Cl)ccc3CC4)cc2)O1 (stereo not drawn) | ≤ 1
CNC(=O)/C=C/c1ccc(-n2nc(C(N)=O)c3c2-c2cc(NS(C)(=O)=O)ccc2CC3)cc1 | ≤ 1
NC(=O)c1nn(-c2ccc(OCC(O)CO)cc2)c2c1CCc1ccc(NC(=O)c3cc(N)ccc3Cl)cc1-2 (stereo not drawn) | ≤ 1
CC(=O)CCc1ccc(-n2nc(C(N)=O)c3c2-c2cc(NS(C)(=O)=O)ccc2CC3)cc1 | 1 to 10
NC(=O)c1nn(-c2ccc(F)c(F)c2)c2c1CCc1ccc(NC(=O)c3cccc(Cl)c3Cl)cc1-2 | 1 to 10
CN(C)CCCOc1ccc(-n2nc(C(N)=O)c3c2-c2cc(NC(=O)c4ccccc4Cl)ccc2CC3)cc1 | 1 to 10
NC(=O)c1nn(-c2ccc(-c3ccc(C(=O)O)cc3)cc2)c2c1CCc1ccc(NC(=O)c3ccccc3Cl)cc1-2 | 1 to 10
COc1ccc(-c2ccc(-n3nc(C(N)=O)c4c3-c3cc(NC(=O)c5ccccc5Cl)ccc3CC4)cc2)cc1OC | 1 to 10
NC(=O)c1nn(-c2ccc(O)cc2)c2c1CCc1ccc(NC(=O)c3cc([N+](=O)[O-])ccc3Cl)cc1-2 | ≤ 1
NC(=O)c1nn(-c2cc(F)cc(F)c2)c2c1CCc1ccc(NC(=O)c3ccccc3Cl)cc1-2 | ≤ 1
NC(=O)c1nn(-c2ccc(NC(=O)COCc3ccccc3)cc2)c2c1CCc1ccc(NC(=O)c3ccccc3Cl)cc1-2 | 1 to 10
NC(=O)c1nn(-c2cccnc2)c2c1CCc1ccc(NC(=O)c3ccccc3Cl)cc1-2 | 1 to 10
NC(=O)c1nn(-c2ccc(-n3cccc3)cc2)c2c1CCc1ccc(NC(=O)c3ccccc3Cl)cc1-2 | 1 to 10
CN(C)C/C=C/c1ccc(-n2nc(C(N)=O)c3c2-c2cc(NC(=O)c4ccccc4Cl)ccc2CC3)cc1 | 1 to 10
Cc1cccc(-n2nc(C(N)=O)c3c2-c2cc(NC(=O)c4ccccc4Cl)ccc2CC3)c1 | ≤ 1
NC(=O)c1nn(-c2ccc(Cl)cc2)c2c1CCc1ccc(NC(=O)c3ccccc3Cl)cc1-2 | ≤ 1
NC(=O)c1nn(-c2ccc(Cl)c(Cl)c2)c2c1CCc1ccc(NC(=O)c3ccccc3Cl)cc1-2 | 1 to 10
NC(=O)c1nn(-c2ccc(OC(F)(F)F)cc2)c2c1CCc1ccc(NC(=O)c3ccccc3Cl)cc1-2 | 1 to 10
CC(C)(O)/C=C/c1ccc(-n2nc(C(N)=O)c3c2-c2cc(NC(=O)c4cccnc4Cl)ccc2CC3)cc1 | 1 to 10

Structure (SMILES) | IC50 [µM]
NC(=O)c1nn(-c2ccc(CCCO)cc2)c2c1CCc1ccc(NC(=O)c3cccnc3Cl)cc1-2 | ≤ 1
COc1cccc(-n2nc(C(N)=O)c3c2-c2cc(NC(=O)c4ccccc4Cl)ccc2CC3)c1 | 1 to 10
NC(=O)c1nn(-c2ccc(/C=C/C(=O)NCc3ccccc3)cc2)c2c1CCc1ccc(NC(=O)c3ccccc3Cl)cc1-2 | 1 to 10
CC(C)c1ccc(-n2nc(C(N)=O)c3c2-c2cc(NC(=O)c4ccccc4Cl)ccc2CC3)cc1 | 1 to 10
NC(=O)c1nn(-c2ccc(-c3cccc(N)c3)cc2)c2c1CCc1ccc(NC(=O)c3ccccc3Cl)cc1-2 | 1 to 10
CC1(C)OCC(COc2ccc(-n3nc(C(N)=O)c4c3-c3cc(NC(=O)c5cccnc5Cl)ccc3CC4)cc2)O1 (stereo not drawn) | 1 to 10
CC1(C)OCC(COc2ccc(-n3nc(C(N)=O)c4c3-c3cc(NC(=O)c5ccncc5Cl)ccc3CC4)cc2)O1 (stereo not drawn) | 1 to 10
NC(=O)c1nn(-c2ccc(-c3ccoc3)cc2)c2c1CCc1ccc(NC(=O)c3ccccc3Cl)cc1-2 | 1 to 10
NC(=O)c1nn(-c2cc(F)c(N)c(F)c2)c2c1CCc1ccc(NC(=O)c3ccncc3Cl)cc1-2 | ≤ 1
NC(=O)c1nn(-c2ccc(Cl)cc2)c2c1CCc1ccc(NC(=O)c3cnccc3Cl)cc1-2 | ≤ 1
NC(=O)c1nn(-c2ccc(OCc3ccccc3)cc2)c2c1CCc1ccc(NC(=O)c3cccnc3Cl)cc1-2 | 1 to 10
NC(=O)c1nn(-c2ccc(Br)cc2)c2c1CCc1ccc(N)cc1-2 | 1 to 10
NC(=O)c1nn(-c2ccc(OCC(O)CO)cc2)c2c1CCc1ccc(NC(=O)c3ccccc3Cl)cc1-2 (stereo not drawn) | ≤ 1
NC(=O)c1nn(-c2ccc(C(F)(F)F)cc2)c2c1CCc1ccc(N)cc1-2 | 1 to 10
CCOC(=O)/C=C/c1ccc(-n2nc(C(N)=O)c3c2-c2cc(NC(=O)c4ccccc4Cl)ccc2CC3)cc1 | 1 to 10
NC(=O)c1nn(-c2ccc(OCC(O)CO)cc2)c2c1CCc1ccc(NC(=O)c3ccncc3Cl)cc1-2 (stereo not drawn) | ≤ 1
NC(=O)c1nn(-c2ccc(NC(=O)c3ccccc3Cl)cc2)c2c1CCc1ccc(NC(=O)c3ccccc3Cl)cc1-2 | 1 to 10
NC(=O)c1nn(-c2cccc(F)c2)c2c1CCc1ccc(NC(=O)c3cccc(F)c3F)cc1-2 | 1 to 10
NC(=O)c1nn(-c2cccc(O)c2)c2c1CCc1ccc(NC(=O)c3cc(N)ccc3Cl)cc1-2 | ≤ 1
CN(C)CCN(C)c1cc(C(=O)Nc2ccc3c(c2)-c2c(c(C(N)=O)nn2-c2ccc(F)cc2)CC3)c(Cl)cn1 | ≤ 1
CN1CCCN(c2cc(C(=O)Nc3ccc4c(c3)-c3c(c(C(N)=O)nn3-c3ccc(F)cc3)CC4)c(Cl)cn2)CC1 | ≤ 1
CN1CCN(c2cc(C(=O)Nc3ccc4c(c3)-c3c(c(C(N)=O)nn3-c3ccc(F)cc3)CC4)c(Cl)cn2)CC1 | ≤ 1
NC(=O)c1nn(-c2ccc(F)cc2)c2c1CCc1ccc(NC(=O)c3nc(N4CCOCC4)ccc3Cl)cc1-2 | 1 to 10
